Experimental data reported in patent US12077503B2, “Substituted cyclic amides and their use as herbicides” (FMC CORPORATION, priority 2015, dated 2024).

What was measured:
Assay type in all cases: in vivo
[1] = system: Kochia (Kochia scoparia); assay: Test A postemergence; conditions: Bassia scoparia, post-emergence, 240 h, Postemergence, read-out: Kochia plant response rating (0 to 100 scale)
Outline: (§1)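 Each rating is a visual injury score from 0 to 100 given about 10 d after treatment, judged against untreated controls kept alongside in the greenhouse. In loam soil–sand blend, seeds got a preemergence directed soil spray, while postemergence plants were 2 to 10 cm tall at spraying.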

[2] = system: corn (Zea mays); assay: Test A postemergence; conditions: Zea mays, post-emergence, 240 h, Postemergence, read-out: Corn plant response rating (0 to 100 scale)
Outline: as §1

[3] = system: ryegrass, Italian (Italian ryegrass, Lolium multiflorum); assay: Test A postemergence; conditions: Lolium multiflorum, post-emergence, 240 h, Postemergence, read-out: Ryegrass, Italian plant response rating (0 to 100 scale)
Outline: as §1

[4] = system: giant foxtail (Setaria faberii); assay: Test A postemergence; conditions: Setaria faberi, post-emergence, 240 h, Postemergence, read-out: Foxtail, Giant plant response rating (0 to 100 scale)
Outline: as §1

[5] = system: ragweed (common ragweed, Ambrosia elatior); assay: Test A postemergence; conditions: Ambrosia artemisiifolia, post-emergence, 240 h, Postemergence, read-out: Ragweed plant response rating (0 to 100 scale)
Outline: as §1

[6] = system: pigweed (Amaranthus retroflexus); assay: Test A postemergence; conditions: Amaranthus retroflexus, post-emergence, 240 h, Postemergence, read-out: Pigweed plant response rating (0 to 100 scale)
Outline: as §1

[7] = system: wheat (Triticum aestivum); assay: Test A postemergence; conditions: Triticum aestivum, post-emergence, 240 h, Postemergence, read-out: Wheat plant response rating (0 to 100 scale)
Outline: as §1

[8] = system: barnyardgrass (Echinochloa crus-galli); assay: Test A postemergence; conditions: Echinochloa crus-galli, post-emergence, 240 h, Postemergence
Outline: as §1

[9] = system: Galium (catchweed bedstraw, Galium aparine); assay: Test A postemergence; conditions: Galium, post-emergence, 240 h, Postemergence, read-out: Galium plant response rating (0 to 100 scale)
Outline: as §1

[10] = system: blackgrass (Alopecurus myosuroides); assay: Test A postemergence; conditions: Alopecurus myosuroides, post-emergence, 240 h, Postemergence, read-out: Blackgrass plant response rating (0 to 100 scale)
Outline: as §1

[11] = system: ducksalad (Heteranthera limosa); assay: Test B flooded paddy test; conditions: Heteranthera limosa, 360 h, Flood, 250 g ai/ha; visually evaluated after 13 to 15 d; read-out: Plant response rating, Ducksalad (0 to 100 scale where 0 is no effect and 100 is complete control)
Outline: (§2)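 Rating scale 0–100 (visual, vs untreated controls) after a 13–15 d greenhouse period; application to the flood layer, 3 cm above soil and maintained; plants at 2-leaf stage when treated.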

[12] = system: rice (Oryra sativa); assay: Test B flooded paddy test; conditions: Oryza sativa, 360 h, Flood, 250 g ai/ha; visually evaluated after 13 to 15 d; read-out: Plant response rating, Rice (0 to 100 scale where 0 is no effect and 100 is complete control)
Outline: as §2

[13] = system: sedge, umbrella (small-flower umbrella sedge, Cyperus difformis); assay: Test B flooded paddy test; conditions: Cyperus difformis, 360 h, Flood, 250 g ai/ha; visually evaluated after 13 to 15 d; read-out: Plant response rating, Sedge, Umbrella (0 to 100 scale where 0 is no effect and 100 is complete control)
Outline: as §2

[14] = system: barnyardgrass (Echinochloa crus-galli); assay: Test B flooded paddy test; conditions: Echinochloa crus-galli, 360 h, Flood, 250 g ai/ha; visually evaluated after 13 to 15 d; read-out: Plant response rating, Barnyardgrass (0 to 100 scale where 0 is no effect and 100 is complete control)
Outline: as §2

[15] = system: Kochia (Kochia scoparia); assay: Test A preemergence; conditions: Bassia scoparia, pre-emergence, 240 h, Preemergence
Outline: as §1

[16] = system: ryegrass, Italian (Italian ryegrass, Lolium multiflorum); assay: Test A preemergence; conditions: Lolium multiflorum, pre-emergence, 240 h, Preemergence
Outline: as §1

[17] = system: giant foxtail (Setaria faberii); assay: Test A preemergence; conditions: Setaria faberi, pre-emergence, 240 h, Preemergence
Outline: as §1

[18] = system: ragweed (common ragweed, Ambrosia elatior); assay: Test A preemergence; conditions: Ambrosia artemisiifolia, pre-emergence, 240 h, Preemergence
Outline: as §1

[19] = system: pigweed (Amaranthus retroflexus); assay: Test A preemergence; conditions: Amaranthus retroflexus, pre-emergence, 240 h, Preemergence
[20] = system: barnyardgrass (Echinochloa crus-galli); assay: Test A preemergence; conditions: Echinochloa crus-galli, pre-emergence, 240 h, Preemergence
Outline: as §1

[21] = 125 g ai/ha, visual rating about 10 d after treatment
[22] = 31 g ai/ha, 0 is no effect, 100 is complete control

Molecule Cc1ccc([C@H]2CN(C)C(=O)[C@@H]2C(=O)Nc2cccc(F)n2)cc1 [Compound 1375] has a pest or weed control at 125 g/ha [1, 21] of 50%, a pest or weed control at 31 g/ha [1, 22] of 30% and a plant injury at 125 g/ha [2, 21] of 30%. The plant injury at 31 g/ha [2, 22] was 0%, the pest or weed control at 125 g/ha [3, 21] was 20% and the pest or weed control at 31 g/ha [3, 22] was 0%. The pest or weed control at 125 g/ha [4, 21] was 90%, the pest or weed control at 31 g/ha [4, 22] was 70% and the pest or weed control at 125 g/ha [5, 21] was 20%. The pest or weed control at 31 g/ha [5, 22] was 0%, the pest or weed control at 125 g/ha [6, 21] was 0% and the pest or weed control at 31 g/ha [6, 22] was 0%. It also gave a plant injury at 125 g/ha [7, 21] of 30%, a plant injury at 31 g/ha [7, 22] of 0% and a pest or weed control at 125 g/ha ([8]; 125 g ai/ha, visual rating about 10 d after treatment, read-out: Barnyardgrass plant response rating (0 to 100 scale, 0 no effect, 100 complete control)) of 100%. It also gave a pest or weed control at 31 g/ha ([8]; 31 g ai/ha, 0 is no effect, 100 is complete control, read-out: Barnyardgrass plant response rating (0 to 100 scale)) of 70%, a pest or weed control at 125 g/ha [9, 21] of 50% and a pest or weed control at 31 g/ha [9, 22] of 20%. It also gave a pest or weed control at 125 g/ha [10, 21] of 40%, a pest or weed control at 31 g/ha [10, 22] of 0% and a pest or weed control at 250 g/ha [11] of 95%. The pest or weed control at 250 g/ha [12] was 0%, the pest or weed control at 250 g/ha [13] was 0% and the pest or weed control at 250 g/ha [14] was 70%. It also gave a pest or weed control at 31 g/ha ([15]; 31 g ai/ha, 0 to 100 scale where 0 is no effect and 100 is complete control, read-out: Kochia plant response rating) of 50%, a pest or weed control at 125 g/ha ([15]; 125 g ai/ha, 0 to 100 scale (0 no effect, 100 complete control), read-out: Plant response rating, Kochia) of 70% and a pest or weed control at 31 g/ha ([16]; 31 g ai/ha, 0 to 100 scale where 0 is no effect and 100 is complete control, read-out: Ryegrass, Italian plant response rating) of 0%. It also gave a pest or weed control at 125 g/ha ([16]; 125 g ai/ha, 0 to 100 scale (0 no effect, 100 complete control), read-out: Plant response rating, Ryegrass, Italian) of 70%, a pest or weed control at 31 g/ha ([17]; 31 g ai/ha, 0 to 100 scale where 0 is no effect and 100 is complete control, read-out: Foxtail, Giant plant response rating) of 90% and a pest or weed control at 125 g/ha ([17]; 125 g ai/ha, 0 to 100 scale (0 no effect, 100 complete control), read-out: Plant response rating, Foxtail, Giant) of 100%. It also gave a pest or weed control at 31 g/ha ([18]; 31 g ai/ha, 0 to 100 scale where 0 is no effect and 100 is complete control, read-out: Ragweed plant response rating) of 40%, a pest or weed control at 125 g/ha ([18]; 125 g ai/ha, 0 to 100 scale (0 no effect, 100 complete control), read-out: Plant response rating, Ragweed) of 70% and a pest or weed control at 31 g/ha ([19]; 31 g ai/ha, 0 to 100 scale where 0 is no effect and 100 is complete control, read-out: Pigweed plant response rating) of 0%. For the same molecule, the pest or weed control at 125 g/ha ([19]; 125 g ai/ha, 0 to 100 scale (0 no effect, 100 complete control), read-out: Plant response rating, Pigweed) was 0%, the pest or weed control at 31 g/ha ([20]; 31 g ai/ha, 0 to 100 scale where 0 is no effect and 100 is complete control, read-out: Barnyardgrass plant response rating) was 90% and the pest or weed control at 125 g/ha ([20]; 125 g ai/ha, 0 to 100 scale (0 no effect, 100 complete control), read-out: Plant response rating, Barnyardgrass) was 100%.
